Patent US20210322508A1, “PEPTIDES AND COMPOSITIONS FOR TARGETED TREATMENT AND IMAGING” (SIGNABLOK, INC., priority 2018, published 2021)
Residues, ends and D or L forms follow the SMILES beside them.

Legend:
[1] = test system: intratumoral macrophages (F4/80); assay: Immunohistochemistry of intratumoral macrophages (F4/80) in PC xenografts; format: in vivo, mouse; details: PC xenografts (shown for BxPC-3)
Method: All staining and quantification procedures were performed by HistoTox Laboratories. Briefly, mice containing AsPC-1, BxPC-3, and Capan-1 tumors were humanely euthanized for necropsy at the end of the study. Excised tumors were fixed using 10% neutral buffered formalin for 1-2 days, processed for paraffin embedding, and sectioned at […]. Antigen retrieval for F4/80 was achieved using Proteinase K (Dako North America). Sections were blocked for peroxidase and alkaline phosphatase activity using Dual Endogenous Enzyme Block (Dako North America). Sections were then incubated with Protein Block (Dako North America) followed by primary antibody F4/80 (1:2000, AbD Serotec) diluted using 1% bovine serum albumin in Tris-buffered saline. […] Quantitative analysis of intratumoral F4/80 staining was determined using Visiopharm software.
Mice containing BxPC-3 tumors were humanely euthanized for necropsy at the end of the study. […] Quantitative analysis of intratumoral F4/80 staining was determined using Visiopharm software.
Immunohistochemistry. All staining and quantification procedures were performed by HistoTox Labs. […] Quantitative analysis of intratumoral F4/80 staining was determined using Visiopharm software.

[2] = molecular target: T1, TREM-1 (Mus musculus, UniProt Q9JKE2); assay: Immunofluorescence colocalization with TREM-1 in the cell membrane; format: cell-based; details: J774A.1; 6 h; Dylight 488-labeled, pre-incubated with HDL
T1 construct: endogenous in cells; host or cells: BALB/c murine macrophage cell line J774A.1 (ATCC)
T1 sequence (O54885 22-114 partner): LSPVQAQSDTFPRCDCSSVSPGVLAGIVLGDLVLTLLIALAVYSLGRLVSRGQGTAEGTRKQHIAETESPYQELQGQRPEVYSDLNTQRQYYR
T1 sequence (Q9JKE2 21-230): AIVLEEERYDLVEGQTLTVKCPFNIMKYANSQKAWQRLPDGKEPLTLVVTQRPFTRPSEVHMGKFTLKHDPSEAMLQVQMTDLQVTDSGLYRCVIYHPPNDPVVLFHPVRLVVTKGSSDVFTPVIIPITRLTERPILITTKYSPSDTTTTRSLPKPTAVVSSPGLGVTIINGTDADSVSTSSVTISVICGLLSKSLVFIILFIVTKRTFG
Method: BALB/c murine macrophage J774A.1 cells were obtained from ATCC (Manassas, Va.) and cultured according to manufacturer's instructions at 37° C. in 6-well tissue culture plates containing glass coverslips until reaching about 50% confluency. Then, cells were incubated for 6 h at 37° C. either with rho B-labeled GF9-SLP that contained Dylight labeled GF9 or TREM-1/TRIOPEP-sSLP that contained Dylight 488-labeled GE31. In colocalization experiments, TREM-1 staining was performed using an Alexa 647-labeled rat anti-mouse TREM-1 antibody (Bio-Rad, Hercules, Calif.) as described in Shen and Sigalov. J Cell Mol Med 2017, 21:2524-2534. Coverslips were mounted using Prolong Gold anti-fade DAPI (4′,6-diamidino-2-phenylindole) mounting medium and photographed using an Olympus BX60 fluorescence microscope. Confocal imaging was performed using a Leica TCS SP5 II laser scanning confocal microscope as described in Shen and Sigalov. J Cell Mol Med 2017, 21:2524-2534.
BALB/c murine macrophage J774A.1 cells were grown at 37° C. in six-well tissue culture plates containing glass coverslips. […] ProLong Gold Antifade DAPI (4′,6′-diamidino-2-phenylindole) mounting medium was used to mount coverslips, and the slides were photographed using an Olympus BX60 fluorescence microscope. […]

[3] = Crossing of blood-retinal and blood-brain barrier (rho B-labeled); details: mouse, in vivo
Method: Litters of C57BL/6J (Jackson Laboratory, Bar Harbor, Me.) neonatal mice and nursing dams were exposed to a hyperoxia environment (75% oxygen) from postnatal day 7 (P7) to P12 and returned to normoxia until P17. The hyperoxia exposure causes degeneration of the immature retinal vessels. […] Beginning on P7, mice were treated until day P17 by daily i.p. injections of GF9, GF9-SLP, TREM-1/TRIOPEP-sSLP or vehicle (phosphate-buffered saline, pH 7.4; PBS). […] In another subset of experiments, rho B-labeled Gd-containing sSLP were used to confirm the ability of these targeted SLP to cross the BRB in other species (rats and rabbits). In another subset of experiments, neonatal mice and nursing dams were not subjected to a hyperoxia environment and reared in room air (RA). At P17, all mice were humanely sacrificed and their retinas were collected.
Litters of C57BL/6J (Jackson Laboratory, Bar Harbor, Me.) neonatal mice and nursing dams were exposed to a hyperoxia environment (75% oxygen) from postnatal day 7 (P7) to P12 and returned to normoxia until P17. The hyperoxia exposure causes degeneration of the immature retinal vessels. […] Beginning on P7, mice were treated until day P17 by daily i.p. injections of G-KV21, G-TE21 at indicated doses or vehicle (PBS, pH 7.4). In certain embodiments, neonatal mice and nursing dams were not subjected to a hyperoxia environment and reared in room air. […]

[4] = comparison of therapies (cancer indications); details: shown for cancer indications

## CC(C)C[C@H](NC(=O)[C@H](Cc1ccccc1)NC(=O)CN)C(=O)N[C@@H](CO)C(=O)N[C@@H](CCCCN)C(=O)N[C@@H](CO)C(=O)N[C@@H](CC(C)C)C(=O)N[C@H](C(=O)N[C@@H](Cc1ccccc1)C(=O)NCC(=O)N[C@@H](CCC(=O)O)C(=O)N[C@@H](CCC(=O)O)C(=O)N[C@@H](CC[S+](C)[O-])C(=O)N[C@@H](CCCNC(=N)N)C(=O)N[C@@H](CC(=O)O)C(=O)N[C@@H](CCCNC(=N)N)C(=O)N[C@@H](C)C(=O)N[C@@H](CCCNC(=N)N)C(=O)N[C@@H](C)C(=O)N[C@@H](Cc1c[nH]cn1)C(=O)N[C@H](C(=O)O)C(C)C)C(C)C (stereo partly shown) [G-HV21] (HELM PEPTIDE1{G.F.L.S.K.S.L.V.F.G.E.E.[CS(=O)CC[C@H](N[*:1])C(=O)[*:2]].R.D.R.A.R.A.H.V}$$$$V2.0)
[1]
  intratumoral macrophage content / infiltration (F4/80): reduces the macrophage infiltration into the tumor

## CC(C)C[C@H](NC(=O)[C@H](Cc1ccccc1)NC(=O)CN)C(=O)N[C@@H](CO)C(=O)N[C@@H](CCCCN)C(=O)N[C@@H](CO)C(=O)N[C@@H](CC(C)C)C(=O)N[C@H](C(=O)N[C@@H](Cc1ccccc1)C(=O)N[C@@H](Cc1c[nH]c2ccccc12)C(=O)N[C@@H](CCC(N)=O)C(=O)N[C@@H](CCC(=O)O)C(=O)N[C@@H](CCC(=O)O)C(=O)N[C@@H](CC[S+](C)[O-])C(=O)N[C@@H](CCC(=O)O)C(=O)N[C@@H](CC(C)C)C(=O)N[C@@H](Cc1ccc(O)cc1)C(=O)N[C@@H](CCCNC(=N)N)C(=O)N[C@@H](CCC(N)=O)C(=O)N[C@@H](CCCCN)C(=O)N[C@H](C(=O)O)C(C)C)C(C)C (stereo partly shown) [G-KV21] (HELM PEPTIDE1{G.F.L.S.K.S.L.V.F.W.Q.E.E.[CS(=O)CC[C@H](N[*:1])C(=O)[*:2]].E.L.Y.R.Q.K.V}$$$$V2.0)
[2]
  self-insertion into the cell membrane and colocalization with TREM-1: self-inserts into the cell membrane and colocalizes with TREM-1

## CC(C)C[C@H](NC(=O)[C@H](Cc1ccccc1)NC(=O)CN)C(=O)N[C@@H](CO)C(=O)N[C@@H](CCCCN)C(=O)N[C@@H](CO)C(=O)N[C@@H](CC(C)C)C(=O)N[C@H](C(=O)N[C@@H](Cc1ccccc1)C(=O)O)C(C)C [GF9] (H-GFLSKSLVF-OH)
[3]
  passage of blood-retinal barrier (BRB) and blood-brain barrier (BBB): pass the blood-retinal barrier (BRB) and blood-brain barrier (BBB)
[4]
  Acute toxicity: LOW
